Assays:
[1] = tested on: adjuvant-induced arthritis of rats; experiment: Adjuvant-induced arthritis of rats; type: in vivo, Male Wistar rats; settings: for Left front paw thickness, Day 5 / Right front paw thickness, Day 5 / Right hind paw thickness, Day 5 / Right hind paw volume, Day 5 / Left hind paw thickness, Day 5 / Left hind paw volume, Day 5: day 5 after administration; for Left hind paw thickness, Day 5 / Left hind paw volume, Day 5 / Left hind paw thickness, Day 10 / Left hind paw volume, Day 10 / Left hind paw thickness, Day 15 / Left hind paw volume, Day 15 / Left hind paw thickness, Day 19 / Left hind paw volume, Day 19: adjuvant-injected paw; for Left front paw thickness, Day 10 / Right front paw thickness, Day 10 / Right hind paw thickness, Day 10 / Right hind paw volume, Day 10 / Left hind paw thickness, Day 10 / Left hind paw volume, Day 10: day 10 after administration; for Left front paw thickness, Day 15 / Right front paw thickness, Day 15 / Right hind paw thickness, Day 15 / Right hind paw volume, Day 15 / Left hind paw thickness, Day 15 / Left hind paw volume, Day 15: day 15 after administration; for Left front paw thickness, Day 19 / Right front paw thickness, Day 19 / Right hind paw thickness, Day 19 / Right hind paw volume, Day 19 / Left hind paw thickness, Day 19 / Left hind paw volume, Day 19: day 19 after administration
Description: Experimental animal: Male Wistar rats. Body weights were about 150 g.
Method of administration: intraperitoneal injection. The dose of wedelolactone was 0.25 mg/kg or 12.5 mg/kg, prepared in 0.5% CMC. The dose of methotrexate (MTX) is 0.2 mg/kg.
Method of experiment: The animals were divided randomly into 4 groups based on their body weights. They were adapted for 3 days before experiments. The left hind planta of the rats were injected subcutaneously with 0.1 ml CFA emulsion to induce inflammation. On the Day 10, after the administration of the adjuvant, the rats were injected intraperitoneally with 5 ml/kg test compound wedelolactone for 19 continuous days. On and after the day of administration of the adjuvant, the change of thickness of the four rat paws was measured daily using a vernier caliper, and the volume of the back paw were measured using a Plethysmometer. The data from day 5, 10, 15, and 19 after administration were used for statistic analyses.

[2] = tested on: collagen-induced rat arthritis; experiment: Collagen-induced rat arthritis (joint surface temperature, inflammation score); type: in vivo, Male Wistar rats; settings: for inflammation score, Day 10 / inflammation score, Day 20 / inflammation score, Day 30: highest total score 16 points; for Joint surface temperature difference (° C.), Day 10: day 10 after first immunization; for Joint surface temperature difference (° C.), Day 20: day 20 after first immunization; for Joint surface temperature difference (° C.), Day 30: day 30 after first immunization
Description: (§1) Experimental animal: Male Wistar rats. Body weights were about 120 g.
(§2) Administration method: intraperitoneal injection. The dose of wedelolactone is 6 or 12 mg/kg. Negative control used 0.5% CMC.
Experimental methods: 1). Preparation of type-II collagen. The fresh calf cartilages were ground at 4° C., immersed and washed with Tris-HCL2. The left residue was digested with pepsin. The supernatant was collected and salted out, followed by chromatography with DE-52 column to obtain type-II collagen. The collagen were dissolved in glacial acetic acid and mixed with Freund's adjuvant by grounding. Each of the animals, except the controls, was subcutaneously injected with a total of 2.5 mg/kg collagen at multiple sites of the tail root and back neck. 7 days thereafter, the animals were boostered by subcutaneous administration with 1.0 mg/kg collagen in the tail root and back neck. The immunized animals were divided randomly into 4 groups based on their body weight, 10 mice in each group. The four groups were modeling blank group, modeling control group, low dose wedelolactone group, and high dose wedelolactone group. The daily administration started at day 10 after the first immunization for 3 weeks continuously. The effects of the drug on the rat rheumatoid arthritis and the delayed-hypersensitivity were recorded. Starting from day 10 after the first immunization, the following data were recorded every 10 days: A) arthritis surface temperature (the surface temperature of both hind leg joints were measured by using a digital temperature recorder, and the temperature differences before and after the immunization was calculated). B) arthritis score (arthritis was scored following the method described in the literature. 1 point: inflammation in one area of paws or planta; 2 points: inflammation in more than two areas of paws or planta; 3 points: mild inflammation in the whole legs; 4 points: severe inflammation causing joint rigidity, deformation and dysfunction. The highest score for each paw is 4 points. The highest total score for each rat is 16 points. C) Delayed-hypersensitivity measurement. At day 24, 10 μl type II collagen containing solution was injected subcutaneously in the back of the right ear of each rat. The thickness of the ear before and 48 hr after the injection was measured.

[3] = tested on: acute inflammation of mice ear caused by dimethylbenzene; experiment: Mice ear inflammation caused by dimethylbenzene; type: in vivo, Kunming mice; settings: for Difference (mg) between left and right ear: 4 days, 2 h after dimethylbenzene, n=10
Description: Experimental animal: Kunming mice, body weight 18-22 g.
Method of administration: intraperitoneal injection. The doses of wedelolactone were 12.5 mg/kg and 25 mg/kg, respectively; the negative control used 0.5% CMC; the positive control used ibuprofen (25 mg/kg).
Method of experiment: The animals were divided randomly into 4 groups based on their body weights, 10 mice each group. The mice were administered with the test compound for 4 continuous days. On Day 4, both sides of the right ears of the mice were daubed evenly with 50 μl dimethylbenzene 2 hours after the administration. The left ears were not treated. The mice were left for 2 hours and then sacrificed by cervical dislocation. The ear specimens were obtained by punching both ears with a 8 mm hole-puncher. The specimens were weighed and the differences between the left and the right ears were used to evaluate the effect of the compound on the inflammation.

[4] = tested on: delayed hypersensitivity of the collagen II-induced arthritic rats; experiment: Delayed hypersensitivity of collagen II-induced arthritic rats; type: in vivo, Male Wistar rats; settings: 48 hr after type II collagen injection
Description: as §1, §2
Experimental methods: 1). Preparation of type-II collagen. The fresh calf cartilages were ground at 4° C., immersed and washed with Tris-HCL2. The left residue was digested with pepsin. The supernatant was collected and salted out, followed by chromatography with DE-52 column to obtain type-II collagen. The collagen were dissolved in glacial acetic acid and mixed with Freund's adjuvant by grounding. Each of the animals, except the controls, was subcutaneously injected with a total of 2.5 mg/kg collagen at multiple sites of the tail root and back neck. […] The effects of the drug on the rat rheumatoid arthritis and the delayed-hypersensitivity were recorded. Starting from day 10 after the first immunization, the following data were recorded every 10 days: A) arthritis surface temperature (the surface temperature of both hind leg joints were measured by using a digital temperature recorder, and the temperature differences before and after the immunization was calculated). B) arthritis score (arthritis was scored following the method described in the literature. […] The thickness of the ear before and 48 hr after the injection was measured.

COc1cc(O)c2c(c1)oc(=O)c1c3cc(O)c(O)cc3oc21 [wedelolactone]
Primary inflammation of the left foot and secondary inflammation of the right foot (FIG. 4) ([1]; 0.25 mg/kg): prone to be alleviated | Left front paw thickness, Day 5 ([1]; 0.25 mg/kg i.p.): 4.20 ± 0.11 mm | Right front paw thickness, Day 5 ([1]; 0.25 mg/kg i.p.): 4.13 ± 0.15 mm | Right hind paw thickness, Day 5 ([1]; 0.25 mg/kg i.p.): 5.05 ± 0.24 mm | Right hind paw volume, Day 5 ([1]; 0.25 mg/kg i.p.): 1.18 ± 0.05 mL | Left hind paw thickness, Day 5 ([1]; 0.25 mg/kg i.p.): 7.10 ± 0.83 mm | Left hind paw volume, Day 5 ([1]; 0.25 mg/kg i.p.): 1.85 ± 0.24 mL | Left front paw thickness, Day 10 ([1]; 0.25 mg/kg i.p.): 4.71 ± 0.24 mm | Right front paw thickness, Day 10 ([1]; 0.25 mg/kg i.p.): 4.66 ± 0.09 mm | Right hind paw thickness, Day 10 ([1]; 0.25 mg/kg i.p.): 5.28 ± 0.38 mm | Right hind paw volume, Day 10 ([1]; 0.25 mg/kg i.p.): 1.16 ± 0.08 mL | Left hind paw thickness, Day 10 ([1]; 0.25 mg/kg i.p.): 8.18 ± 1.22 mm | Left hind paw volume, Day 10 ([1]; 0.25 mg/kg i.p.): 2.38 ± 0.30 mL | Left front paw thickness, Day 15 ([1]; 0.25 mg/kg i.p.): 4.61 ± 0.10 mm | Right front paw thickness, Day 15 ([1]; 0.25 mg/kg i.p.): 4.54 ± 0.15 mm | Right hind paw thickness, Day 15 ([1]; 0.25 mg/kg i.p.): 5.15 ± 0.35 mm | Right hind paw volume, Day 15 ([1]; 0.25 mg/kg i.p.): 1.29 ± 0.13 mL | Left hind paw thickness, Day 15 ([1]; 0.25 mg/kg i.p.): 8.51 ± 0.91 mm | Left hind paw volume, Day 15 ([1]; 0.25 mg/kg i.p.): 2.63 ± 0.37 mL | Left front paw thickness, Day 19 ([1]; 0.25 mg/kg i.p.): 4.64 ± 0.17 mm | Right front paw thickness, Day 19 ([1]; 0.25 mg/kg i.p.): 4.59 ± 0.15 mm | Right hind paw thickness, Day 19 ([1]; 0.25 mg/kg i.p.): 5.23 ± 0.23 mm | Right hind paw volume, Day 19 ([1]; 0.25 mg/kg i.p.): 1.36 ± 0.12 mL | Left hind paw thickness, Day 19 ([1]; 0.25 mg/kg i.p.): 8.49 ± 1.06 mm | Left hind paw volume, Day 19 ([1]; 0.25 mg/kg i.p.): 2.61 ± 0.42 mL | Primary inflammation of the left foot and secondary inflammation of the right foot (FIG. 3) ([1]; 12.5 mg/kg): alleviated | Left front paw thickness, Day 5 ([1]; 12.5 mg/kg i.p.): 4.11 ± 0.11 mm | Right front paw thickness, Day 5 ([1]; 12.5 mg/kg i.p.): 4.01 ± 0.17 mm | Right hind paw thickness, Day 5 ([1]; 12.5 mg/kg i.p.): 4.95 ± 0.27 mm | Right hind paw volume, Day 5 ([1]; 12.5 mg/kg i.p.): 1.10 ± 0.10 mL | Left hind paw thickness, Day 5 ([1]; 12.5 mg/kg i.p.): 7.13 ± 0.96 mm | Left hind paw volume, Day 5 ([1]; 12.5 mg/kg i.p.): 1.64 ± 0.31 mL | Left front paw thickness, Day 10 ([1]; 12.5 mg/kg i.p.): 4.03 ± 0.13 mm | Right front paw thickness, Day 10 ([1]; 12.5 mg/kg i.p.): 3.95 ± 0.12 mm | Right hind paw thickness, Day 10 ([1]; 12.5 mg/kg i.p.): 5.05 ± 0.25 mm | Right hind paw volume, Day 10 ([1]; 12.5 mg/kg i.p.): 1.03 ± 0.10 mL | Left hind paw thickness, Day 10 ([1]; 12.5 mg/kg i.p.): 8.09 ± 1.05 mm | Left hind paw volume, Day 10 ([1]; 12.5 mg/kg i.p.): 2.14 ± 0.45 mL | Left front paw thickness, Day 15 ([1]; 12.5 mg/kg i.p.): 4.11 ± 0.16 mm | Right front paw thickness, Day 15 ([1]; 12.5 mg/kg i.p.): 4.11 ± 0.16 mm | Right hind paw thickness, Day 15 ([1]; 12.5 mg/kg i.p.): 5.20 ± 0.23 mm | Right hind paw volume, Day 15 ([1]; 12.5 mg/kg i.p.): 1.24 ± 0.16 mL | Left hind paw thickness, Day 15 ([1]; 12.5 mg/kg i.p.): 8.44 ± 1.63 mm | Left hind paw volume, Day 15 ([1]; 12.5 mg/kg i.p.): 2.42 ± 0.62 mL | Left front paw thickness, Day 19 ([1]; 12.5 mg/kg i.p.): 4.04 ± 0.14 mm | Right front paw thickness, Day 19 ([1]; 12.5 mg/kg i.p.): 4.04 ± 0.07 mm | Right hind paw thickness, Day 19 ([1]; 12.5 mg/kg i.p.): 4.98 ± 0.10 mm | Right hind paw volume, Day 19 ([1]; 12.5 mg/kg i.p.): 1.19 ± 0.08 mL | Left hind paw thickness, Day 19 ([1]; 12.5 mg/kg i.p.): 8.53 ± 1.33 mm | Left hind paw volume, Day 19 ([1]; 12.5 mg/kg i.p.): 2.46 ± 0.75 mL | Inhibition of rat adjuvant arthritis ([1]; 0.25 or 12.5 mg/kg i.p., 19 days): could effectively inhibit rat adjuvant arthritis | inflammation score, Day 10 ([2]; 6 mg/kg i.p.): 4.00 ± 2.02 | Joint surface temperature difference (° C.), Day 10 ([2]; 6 mg/kg i.p.): 1.42 ± 0.74 °C | inflammation score, Day 20 ([2]; 6 mg/kg i.p.): 3.10 ± 1.45 | Joint surface temperature difference (° C.), Day 20 ([2]; 6 mg/kg i.p.): 0.83 ± 0.44 °C | inflammation score, Day 30 ([2]; 6 mg/kg i.p.): 2.7 ± 1.35 | Joint surface temperature difference (° C.), Day 30 ([2]; 6 mg/kg i.p.): 0.72 ± 0.40 °C | inflammation score, Day 10 ([2]; 12 mg/kg i.p.): 4.10 ± 2.08 | Joint surface temperature difference (° C.), Day 10 ([2]; 12 mg/kg i.p.): 1.36 ± 0.50 °C | inflammation score, Day 20 ([2]; 12 mg/kg i.p.): 2.00 ± 1.41 | Joint surface temperature difference (° C.), Day 20 ([2]; 12 mg/kg i.p.): 0.73 ± 0.45 °C | inflammation score, Day 30 ([2]; 12 mg/kg i.p.): 1.40 ± 1.02 | Joint surface temperature difference (° C.), Day 30 ([2]; 12 mg/kg i.p.): 0.48 ± 0.39 °C | Inhibition of collagen-induced rat arthritis ([2]; 6 or 12 mg/kg i.p., 3 weeks): can effectively inhibit the collagen-induced rat arthritis | Difference (mg) between left and right ear ([3]; 12.5 mg/kg i.p.): 11.3 ± 3.6 mg | Difference (mg) between left and right ear ([3]; 25 mg/kg i.p.): 10.9 ± 4.6 mg | Inhibition of mice ear inflammation caused by dimethylbenzene ([3]; 12.5 and 25 mg/kg i.p.): could inhibit the inflammation of the mice ear caused by dimethylbenzene | Increased thickness of the right ear (mm) ([4]; 6 mg/kg i.p.): 0.231 ± 0.113 mm | Increased thickness of the right ear (mm) ([4]; 12 mg/kg i.p.): 0.194 ± 0.115 mm

Source: US20070129426A1, “Therapeutic drugs for arthritis” (Shanghai Ambrosia Pharmaceutical Co., Ltd., priority 2003, published 2007)
